Consider two compounds from PMC4055595, “Pharmacokinetic Compatibility of Ginsenosides and Schisandra Lignans in Shengmai-san: From the Perspective of P-Glycoprotein” (PLoS ONE, 2014).

Structures are written as SMILES. Read-outs that look alike come from different tables or passages of the source.

Series [1] can be described thus: Rat plasma pharmacokinetics after single-dose vehicle/SLE and digoxin or GE. The format is in vivo, Sprague-Dawley rats. The note with it: for AUC(0-inf): read-out: AUCINF_obs; for MRT inf: read-out: MRTINF_obs. As for the experimental part: This study was carried out in strict accordance with the recommendations in the Guide for the Care and Use of Laboratory Animals of the National Institutes of Health. The protocol was approved by the Committee on the Ethics of Animal Experiments of the China Pharmaceutical University. All surgery was performed under sodium pentobarbital anesthesia, and all efforts were made to minimize suffering. Female healthy Sprague-Dawley rats (200±20 g) were purchased from the Laboratory Animal Center of Peking University Health Science Center (Beijing, PR China) and kept in an environmentally controlled breeding room for at least 3 days before experimentation. The rats were fed with standard laboratory food and water and fasted overnight but with free access to water before the test. To evaluate the effect of single treatment of SLE on the pharmacokinetics of ginsenosides, 24 rats were divided into four groups (group I ∼ group IV) averagely. […] In group II (control group): the rats received a single dose of vehicle (0.5% CMC-Na), and digoxin (0.5 mg/kg) was also given to the rats by intragastric administration. […] In group IV (control group): the rats received a single dose of vehicle (0.5% CMC-Na), and GE (120 mg/kg) was also given to the rats by gavage. […] Plasma was obtained by centrifugation at 5000 g for 10 min and stored at −20°C before analysis. The plasma / cell samples were extracted using a liquid–liquid extraction technique. To each tube containing 100 µL plasma, 10 µL internal standard (digoxin, 1.0 µg/mL) and 1.0 mL of n-butanol were added. The mixture was then vortex-extracted for 2 min, and centrifuged for 10 min at 10,000 g. […] The plasma concentration-time curves of ginsenosides in rats were obtained by plotting the mean plasma concentrations versus time. Pharmacokinetic parameters were calculated using the WinNonlin 6.3 program (Pharsight Inc., Mountain View, CA). The elimination half-life (t 1/2) value was calculated as 0.693/β, where β is the elimination rate constant calculated from the terminal linear portion of the log plasma concentration-time curve. The total areas under the plasma concentration- time curve from time 0 to the last quantifiable time point (AUC0-t) and from time 0 to infinity (AUC0-∞) were calculated using the log trapezoidal rule. [drawing 3] The maximum plasma concentrations (C max) for ginsenosides were obtained by visual inspection of the plasma concentration-time curve, whereas the initial drug concentration (the extrapolated concentration at zero time) of the drug after intravenous injection was calculated by back-extrapolation of the plasma concentration-time curve to the y-axis.

For series [2], the system named is LLC-PK1 cells (lacking P-gp). Put plainly: Uptake (intracellular accumulation) of digoxin and ginsenosides in LLC-PK1 cells. Particulars: for Effect of verapamil on intracellular accumulation: 10 µM verapamil; for Effect of SLE on intracellular accumulation: SLE 2.0 and 10.0 µg/mL. The format is in vitro ADME. As for the experimental part: (§1) LLC-PK1 cells, a cell line lacking P-gp, and the derived cell line L-MDR1, which over-express human MDR1-encoded P-gp, were grown in minimum essential medium with supplements at 37°C, 5% CO2, and 95% humidity. LLC-PK1 and L-MDR1 cells were seeded at a density of 12×10^6 cells per 150-cm^2 flask and grown for 7 days in medium 199 supplemented with 2 mM glutamine, 10% fetal bovine serum, 10 mg/500 mL of streptomycin, and 10,000 IU/500 mL of penicillin. To ensure a constant expression level of transport protein, L-MDR1 cells were grown in the presence of 640 nM vincristine. Cells were grown as monolayer on polycarbonate membrane filters (Transwell; Costar Corporation, Cambridge, MA) as outlined previously. Transepithelial resistance was measured in each well using a Millicell ERS ohmmeter (Millipore, Bedford, MA); wells registering a resistance of 200 ohms or greater, after correcting for the resistance obtained in control blank wells, were used in the transport experiments.
LLC-PK1 and L-MDR1 cells were incubated with SLE (2.0 and 10.0 µg/mL) or verapamil (10 µM) for 1.0 h, and then were washed to discard SLE or verapamil before adding 100 µg/mL of GE. The accumulation of GE lasted for 2 h, and the intracellular concentrations of ginsenosides were measured by LC/MS. All experiments were conducted in triplicate.

Series [3] addresses human MDR1-encoded P-gp (L-MDR1 cells) (Homo sapiens, UniProt P08183). Put plainly: Transport of digoxin and ginsenosides across L-MDR1 cell monolayers (efflux ratio). The format is in vitro ADME. The note with it: for Effect of verapamil on efflux ratio / Papp / Effect of SLE on efflux ratio / transport: L-MDR1 cells; for Effect of verapamil on efflux ratio / Papp: 10 µM verapamil; for Effect of SLE on efflux ratio / transport: SLE 2.0 and 10.0 µg/mL; for P-gp substrate classification: summary of transport/uptake in LLC-PK1, L-MDR1 and Caco-2 cells with verapamil. On the procedure:
as §1
(§2) The LLC-PK1 and L-MDR1 cells were washed with warm Hank's balanced salt solution HBSS (pH 7.4) twice before transport experiment. HBSS containing verapamil (10 µM), SLE (2.0 and 10.0 µg/mL) or blank HBSS (control) was then loaded into both apical and basolateral chambers. After incubation at 37°C for 1.5 h, GE (100 µg/mL) was added to either the apical or basolateral side to evaluate the transport in absorptive and secretive directions, respectively. The cell monolayer was then incubated for another 2 h. Finally, the concentrations of ginsenosides were determined by LC/MS. All experiments were conducted in triplicate.
(§3) For the transport assay, the apparent permeability (P app, cm/s) in each direction (A→B and B→A) was calculated as follows, where A is the surface area of the membrane inserts (0.0804 cm^2), C 0 is the initial concentration of the compound applied in the donor compartment (2 µM), and △Q is the amount (micromoles) of compound transported over time △t (5 h = 18,000 s): [drawing 1]
(§4) The efflux ratio (ER) was a dimensionless number calculated as the ratio of the apparent permeability in the B→A direction divided by the apparent permeability in the A→B direction. [drawing 2]
On the technique in general: Caco-2 cells form a polarised layer with tight junctions and transporters.

The target in series [4] is P-gp (MDR1) (Homo sapiens, UniProt P08183). The series is described as above. The format is in vitro ADME. Particulars: human, read-out: Efflux ratio (Papp BL-AP / Papp AP-BL). As for the experimental part: as §1, §2, §3, §4
Chain of P-gp (MDR1) (P08183 whole entry): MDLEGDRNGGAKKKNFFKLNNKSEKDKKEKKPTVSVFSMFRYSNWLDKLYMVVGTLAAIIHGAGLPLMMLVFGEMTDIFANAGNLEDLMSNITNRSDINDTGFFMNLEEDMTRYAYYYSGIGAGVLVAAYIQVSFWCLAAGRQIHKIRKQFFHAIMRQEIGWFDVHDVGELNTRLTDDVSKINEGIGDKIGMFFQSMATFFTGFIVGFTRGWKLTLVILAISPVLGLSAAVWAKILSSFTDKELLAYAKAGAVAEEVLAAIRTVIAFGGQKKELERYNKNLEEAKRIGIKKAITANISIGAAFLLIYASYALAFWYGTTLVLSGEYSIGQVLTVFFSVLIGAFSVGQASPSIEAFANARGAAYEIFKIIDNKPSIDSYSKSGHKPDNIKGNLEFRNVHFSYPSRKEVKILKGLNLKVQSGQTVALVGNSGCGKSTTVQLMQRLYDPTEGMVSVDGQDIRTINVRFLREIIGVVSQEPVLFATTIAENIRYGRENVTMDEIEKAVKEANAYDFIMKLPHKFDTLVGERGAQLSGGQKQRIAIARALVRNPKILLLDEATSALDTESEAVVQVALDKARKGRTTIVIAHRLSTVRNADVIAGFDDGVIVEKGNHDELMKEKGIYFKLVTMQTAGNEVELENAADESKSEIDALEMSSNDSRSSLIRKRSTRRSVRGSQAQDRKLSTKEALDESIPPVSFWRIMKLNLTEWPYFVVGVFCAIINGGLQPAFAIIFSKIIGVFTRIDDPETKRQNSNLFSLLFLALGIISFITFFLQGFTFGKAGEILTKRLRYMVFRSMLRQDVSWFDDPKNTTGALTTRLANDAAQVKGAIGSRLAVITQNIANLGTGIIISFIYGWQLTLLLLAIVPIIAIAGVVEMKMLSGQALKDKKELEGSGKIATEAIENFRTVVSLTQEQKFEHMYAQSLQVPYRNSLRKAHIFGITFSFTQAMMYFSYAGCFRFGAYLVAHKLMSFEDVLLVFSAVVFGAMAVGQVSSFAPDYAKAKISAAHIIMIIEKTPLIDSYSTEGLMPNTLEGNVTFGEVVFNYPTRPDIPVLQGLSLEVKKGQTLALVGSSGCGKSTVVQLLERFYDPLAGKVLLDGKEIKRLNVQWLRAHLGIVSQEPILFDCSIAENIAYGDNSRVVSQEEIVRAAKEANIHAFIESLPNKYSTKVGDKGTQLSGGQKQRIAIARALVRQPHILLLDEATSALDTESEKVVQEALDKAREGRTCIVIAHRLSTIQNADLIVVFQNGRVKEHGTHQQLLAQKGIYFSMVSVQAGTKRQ
Setting [5] is: female, Sprague-Dawley, rat, in vivo, po.
Setting [6] is: LLC-PK1, pH 7.4, with verapamil 10 µM, L-MDR1 cells, presence of 10 µM verapamil.
Where [7] appears, read: female, Sprague-Dawley, rat, plasma, po, rats, control: single vehicle, 2 h later digoxin 0.5 mg/kg or GE 120 mg/kg ig.
Setting [8] is: female, Sprague-Dawley, rat, plasma, po, rats, single SLE 500 mg/kg ig, 2 h later digoxin 0.5 mg/kg or GE 120 mg/kg ig.
Where [9] appears, read: rats, single-dose SLE 500 mg/kg vs vehicle, GE ig.

Broadly, the Tmax is the time from dosing to the highest level. A word on the AUC: it is the area under the concentration-time curve, a measure of exposure. Low readings indicate low exposure, high ones high exposure. By Cmax is commonly meant the maximum level reached in the sampled fluid or tissue.

Chain of human MDR1-encoded P-gp (L-MDR1 cells) (P08183 whole entry): as above

For the compound `CC(C)=CCC[C@](C)(O[C@@H]1O[C@H](CO[C@@H]2O[C@@H](CO)[C@H](O)[C@H]2O)[C@@H](O)[C@H](O)[C@H]1O)[C@H]1CC[C@]2(C)[C@@H]1[C@H](O)C[C@@H]1[C@@]3(C)CC[C@H](O[C@@H]4O[C@H](CO)[C@@H](O)[C@H](O)[C@H]4O[C@@H]4O[C@H](CO)[C@@H](O)[C@H](O)[C@H]4O)C(C)(C)[C@@H]3CC[C@]12C` [Rc, ginsenoside Rc], in series [1] (setting [5]), the Tmax turned out to be 9.00 ± 2.00 h and the t1/2 was 16.90 ± 2.14 h. In addition, the Tmax in series [1] (female, Sprague-Dawley, rat, in vivo, po, Tmax) is 9.5 ± 3 h. In series [1] (female, Sprague-Dawley, rat, in vivo, po, t1/2), this compound had a half-life of 1040 ± 272 min. Also, in series [2], the “Effect of verapamil on intracellular accumulation” value was “no significant difference” and the “Effect of SLE on intracellular accumulation” value was “no significant difference”. For the same compound, in series [3], the “Effect of verapamil on efflux ratio / Papp” value is “significantly decrease of ER”, the “Effect of SLE on efflux ratio / transport” value is listed as “significantly decreased” and the P-gp substrate classification result was “moderate P-gp substrates”. Moreover, in series [4] (LLC-PK1, pH 7.4, L-MDR1 cells, control (absence of verapamil), GE 100 µg/mL, 2 h), the efflux ratio at 2 h, 100 µg/mL is greater than 3.5. Besides, the efflux ratio at 2 h, 100 µg/mL in series [4] (setting [6]) was found to be 1.42.
In the case of `CC(C)=CCC[C@](C)(O[C@@H]1O[C@H](CO)[C@@H](O)[C@H](O)[C@H]1O)[C@H]1CC[C@]2(C)[C@@H]1[C@H](O)C[C@@H]1[C@@]3(C)CC[C@H](O[C@@H]4O[C@H](CO)[C@@H](O)[C@H](O)[C@H]4O[C@@H]4O[C@H](CO)[C@@H](O)[C@H](O)[C@H]4O)C(C)(C)[C@@H]3CC[C@]12C` [Rd, ginsenoside Rd], in series [1] (female, Sprague-Dawley, rat, plasma, po, rats, control: single vehicle (0.5% sodium CMC), 2 h later digoxin 0.5 mg/kg or GE 120 mg/kg ig, read-out: t1/2 (converted)), the half-life is 4530 ± 2560 min. In series [1] (setting [7]), the AUC turned out to be 5350 ± 1400 ng·h/mL, the Cmax is 237 ± 79 ng/mL, the AUC(0-inf) worked out at 7410 ± 2180 ng·h/mL and the MRT inf is 21.6 ± 49 h. Further, the Tmax in series [1] (female, Sprague-Dawley, rat, plasma, po, rats, control: single vehicle, 2 h later digoxin 0.5 mg/kg or GE 120 mg/kg ig, read-out: Tmax) stood at 7.5 ± 1 h. In series [1] (setting [8]), the AUC amounted to 7960 ± 2000 ng·h/mL, the Cmax was 227 ± 57.8 ng/mL, the AUC(0-inf) came out at 9040 ± 2200 ng·h/mL and the MRT inf was determined as 25.1 ± 7.45 h. Also, the Tmax in series [1] (female, Sprague-Dawley, rat, plasma, po, rats, single SLE 500 mg/kg ig, 2 h later digoxin 0.5 mg/kg or GE 120 mg/kg ig, read-out: Tmax) was found to be 7.5 ± 1 h. Besides, the half-life in series [1] (female, Sprague-Dawley, rat, plasma, po, rats, single SLE 500 mg/kg ig, 2 h later digoxin 0.5 mg/kg or GE 120 mg/kg ig, read-out: t1/2 (converted)) is 1310 ± 407 min. In series [1] (rats, control: single vehicle, 2 h later digoxin 0.5 mg/kg or GE 120 mg/kg ig), the Cl_F_obs was 0.014 ± 0.003 L/h. In series [1] (rats, single SLE 500 mg/kg ig, 2 h later digoxin 0.5 mg/kg or GE 120 mg/kg ig), this compound showed a Cl_F_obs of 0.011 ± 0.003 L/h. For the same compound, in series [1] (setting [9]), the “Effect of SLE treatment on Cmax” value is given as “not dramatically changed” and the “Increase of AUC (AUC0-∞) by coadministration of SLE” value was 1.86 fold. In series [2], the “Effect of verapamil on intracellular accumulation” value is “no significant difference” and the “Effect of SLE on intracellular accumulation” value is reported as “no significant difference”. Further, in series [3], the “Effect of verapamil on efflux ratio / Papp” value is listed as “significantly decrease of ER”, the “Effect of SLE on efflux ratio / transport” value is reported as “significantly decreased” and the P-gp substrate classification result is given as “moderate P-gp substrates”. Moreover, the efflux ratio at 2 h, 100 µg/mL in series [4] (setting [6]) was found to be 2.19.
